The source of these data is the NIST ThermoML archive (doi:10.1021/je700015t).

For this series the following is noted: 101.33 kPa, Liquid.

Numbers after ± are expanded uncertainties.

In general, mass density refers to mass per unit of volume. Consider `CCCCBr` [1-bromobutane], for which the mass density is, setting by setting: (253.15 K) 1326.5 ± 1.7 kg/m3; (263.15 K) 1313.8 ± 1.6 kg/m3; (273.15 K) 1300.5 ± 1.5 kg/m3; (283.15 K) 1286.4 ± 1.4 kg/m3; (298.15 K) 1265.7 ± 1.3 kg/m3; (323.15 K) 1229.5 ± 1.5 kg/m3.
With `CCCCCCCCCCCCBr` [1-bromododecane], the mass density runs as follows: (273.15 K) 1056.5 ± 1.3 kg/m3; (283.15 K) 1048.5 ± 1.2 kg/m3; (293.15 K) 1039.8 ± 1.1 kg/m3; (298.15 K) 1035.6 ± 1.2 kg/m3; (323.15 K) 1014 ± 1.4 kg/m3; (343.15 K) 996.2 ± 1.5 kg/m3. For the same compound, the mass density was 979 ± 1.7 kg/m3 (363.15 K), 952.4 ± 1.9 kg/m3 (393.15 K) and 923.7 ± 2.2 kg/m3 (423.15 K).
For the compound `CCCCCCCBr` [1-bromoheptane], the mass density (243.15 K) stood at 1191 ± 1.8 kg/m3; the mass density (263.15 K) stood at 1169.6 ± 1.6 kg/m3; the mass density (273.15 K) came out at 1159.2 ± 1.4 kg/m3; the mass density (283.15 K) is reported as 1148.7 ± 1.3 kg/m3; the mass density (298.15 K) stood at 1132.9 ± 1.3 kg/m3; the mass density (323.15 K) came to 1106 ± 1.5 kg/m3. Moreover, the mass density reads like this: (343.15 K) 1084.5 ± 1.6 kg/m3; (393.15 K) 1026.6 ± 2 kg/m3.
With `CCCCCCBr` [1-bromohexane], the mass density (253.15 K) is recorded as 1218 ± 1.7 kg/m3; the mass density (273.15 K) was found to be 1195.3 ± 1.5 kg/m3; the mass density (283.15 K) came to 1183.8 ± 1.3 kg/m3; the mass density (298.15 K) is 1166.8 ± 1.3 kg/m3; the mass density (323.15 K) is recorded as 1137.3 ± 1.5 kg/m3; the mass density (343.15 K) is recorded as 1113.7 ± 1.6 kg/m3. The mass density is, setting by setting: (363.15 K) 1090.8 ± 1.8 kg/m3; (383.15 K) 1066.1 ± 1.9 kg/m3; (403.15 K) 1040.9 ± 2.1 kg/m3.
For the compound `CCCCCCCCBr` [1-bromooctane], the mass density runs as follows: (253.15 K) 1151.1 ± 1.7 kg/m3; (263.15 K) 1140.9 ± 1.5 kg/m3; (273.15 K) 1131.2 ± 1.4 kg/m3; (283.15 K) 1121.2 ± 1.3 kg/m3; (293.15 K) 1111 ± 1.2 kg/m3; (298.15 K) 1106 ± 1.3 kg/m3. The mass density is listed as 1080.6 ± 1.5 kg/m3 (323.15 K), 1060.5 ± 1.6 kg/m3 (343.15 K), 1039.5 ± 1.8 kg/m3 (363.15 K) and 1008.4 ± 2 kg/m3 (393.15 K).
As to `CCCCCBr` [1-bromopentane], the mass density was 1260.3 ± 2 kg/m3 (253.15 K); 1249.9 ± 1.9 kg/m3 (263.15 K); 1239.6 ± 1.8 kg/m3 (273.15 K); 1214.9 ± 1.6 kg/m3 (293.15 K); 1208.5 ± 1.6 kg/m3 (298.15 K); 1177.1 ± 1.8 kg/m3 (323.15 K). The mass density was found to be 1151 ± 1.9 kg/m3 (343.15 K), 1124.7 ± 2 kg/m3 (363.15 K), 1097.4 ± 2.2 kg/m3 (383.15 K) and 1083.4 ± 2.2 kg/m3 (393.15 K).
Consider `CCCBr` [1-bromopropane], for which the mass density (243.15 K) was 1431.1 ± 1.9 kg/m3; the mass density (253.15 K) was 1415.4 ± 1.8 kg/m3; the mass density (263.15 K) was determined as 1400.3 ± 1.7 kg/m3; the mass density (273.15 K) is 1385.3 ± 1.6 kg/m3; the mass density (283.15 K) stood at 1369.4 ± 1.5 kg/m3; the mass density (298.15 K) was found to be 1344.5 ± 1.4 kg/m3.
